Source: US20250136577A1, “HETEROCYCLIC DERIVATIVES AS MALT1 INHIBITORS” (C4X Discovery Limited, priority 2022, published 2025)
pIC50: −log10 of the molar value.

What was measured:
FL hMALT1 enzyme = FL hMALT1 enzyme (Homo sapiens (Human), UniProt Q9UDY8); assay: MALT1 Protease Assay 2 (Assay 2), higher sensitivity, cleavage of fluorogenic tetrapeptide substrate; type: biochemical; conditions: FL hMALT1 1-10 nM, Ac-LVSR-AMC 100 μM, 0.7 M sodium citrate, 30 min preincubation, 60 min read
Experimental: MALT1 Protease Assay 2 (Assay 2)
(§1) MALT1 protease activity was assessed in vitro by measuring the cleavage of a fluorogenic tetrapeptide substrate.
For a higher sensitivity assay, commercially available FL hMALT1 enzyme (Abcam, 1-10 nM) was incubated with substrate (Ac-LVSR-AMC, 100 μM) in reaction buffer comprising 50 mM HEPES (pH7.0), 25 mM KCl, 0.1% (v/v) CHAPS, 1 mM TCEP and 0.7 M sodium citrate.
(§2) Test compounds dissolved in DMSO were dispensed into assay plates (384-well, black, shallow ProxiPlates). 7 μl enzyme solution was added and incubated at room temperature for 30 minutes to allow compound binding to occur. 2 μl substrate solution was then added and the fluorescence (excitation 360 nm, emission 460 nm) read every 15 minutes using a suitable plate reader. Final assay DMSO concentration was 1%. Linearity over 60 minutes was confirmed, and assay signal was calculated by subtracting raw counts at time 0 from those at 60 minutes. % inhibition was calculated for each well, using no enzyme for 100% inhibition controls and no compound for 0% inhibition controls. IC50 values were calculated using GraphPad Prism using a 4-parameter non-linear regression curve fit.

[1] = biological target: MALT1-GS-Ub (6-His-hMALT-1 residues 339-715 fused to ubiquitin) (Homo sapiens (Human), UniProt Q9UDY8); assay: MALT1 Protease Assay 1 (Assay 1), cleavage of fluorogenic tetrapeptide substrate; type: biochemical; conditions: MALT1-GS-Ub 300-600 nM, Ac-LVSR-AMC 100 μM, 30 min preincubation, 60 min read
Sequence of MALT1-GS-Ub (6-His-hMALT-1 residues 339-715 fused to ubiquitin) (Q9UDY8 other isoform, or with tags, fused parts or gaps): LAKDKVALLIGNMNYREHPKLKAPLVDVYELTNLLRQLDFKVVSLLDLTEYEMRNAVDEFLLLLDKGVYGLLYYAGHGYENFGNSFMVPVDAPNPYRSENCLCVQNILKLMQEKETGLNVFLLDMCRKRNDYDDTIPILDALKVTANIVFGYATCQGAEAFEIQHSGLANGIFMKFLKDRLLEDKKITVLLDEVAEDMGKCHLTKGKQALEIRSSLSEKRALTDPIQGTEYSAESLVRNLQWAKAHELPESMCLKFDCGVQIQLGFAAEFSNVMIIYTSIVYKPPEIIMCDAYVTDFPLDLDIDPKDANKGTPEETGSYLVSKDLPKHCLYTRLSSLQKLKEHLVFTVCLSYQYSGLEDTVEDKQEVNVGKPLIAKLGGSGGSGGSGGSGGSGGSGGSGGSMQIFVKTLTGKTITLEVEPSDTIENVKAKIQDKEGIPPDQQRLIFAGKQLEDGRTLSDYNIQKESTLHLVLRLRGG
Experimental: MALT1 Protease Assay 1 (Assay 1)
as §1
A protein (MALT1-GS-Ub) comprising 6-His-hMALT-1 (residues 339-715), fused to ubiquitin with an 8× GGS linker, was expressed in E. coli, and purified using chitin resin to remove contaminants followed by affinity chromatography purification and size-exclusion chromatography, according to standard protocols.
Briefly, MALT1-GS-Ub (300-600 nM) was incubated with substrate (Ac-LVSR-AMC, 100 μM) in reaction buffer comprising 50 mM HEPES (pH7.0), 25 mM KCl, 0.1% (v/v) CHAPS and 1 mM TCEP.
as §2

Sequence of FL hMALT1 enzyme (Q9UDY8 whole entry): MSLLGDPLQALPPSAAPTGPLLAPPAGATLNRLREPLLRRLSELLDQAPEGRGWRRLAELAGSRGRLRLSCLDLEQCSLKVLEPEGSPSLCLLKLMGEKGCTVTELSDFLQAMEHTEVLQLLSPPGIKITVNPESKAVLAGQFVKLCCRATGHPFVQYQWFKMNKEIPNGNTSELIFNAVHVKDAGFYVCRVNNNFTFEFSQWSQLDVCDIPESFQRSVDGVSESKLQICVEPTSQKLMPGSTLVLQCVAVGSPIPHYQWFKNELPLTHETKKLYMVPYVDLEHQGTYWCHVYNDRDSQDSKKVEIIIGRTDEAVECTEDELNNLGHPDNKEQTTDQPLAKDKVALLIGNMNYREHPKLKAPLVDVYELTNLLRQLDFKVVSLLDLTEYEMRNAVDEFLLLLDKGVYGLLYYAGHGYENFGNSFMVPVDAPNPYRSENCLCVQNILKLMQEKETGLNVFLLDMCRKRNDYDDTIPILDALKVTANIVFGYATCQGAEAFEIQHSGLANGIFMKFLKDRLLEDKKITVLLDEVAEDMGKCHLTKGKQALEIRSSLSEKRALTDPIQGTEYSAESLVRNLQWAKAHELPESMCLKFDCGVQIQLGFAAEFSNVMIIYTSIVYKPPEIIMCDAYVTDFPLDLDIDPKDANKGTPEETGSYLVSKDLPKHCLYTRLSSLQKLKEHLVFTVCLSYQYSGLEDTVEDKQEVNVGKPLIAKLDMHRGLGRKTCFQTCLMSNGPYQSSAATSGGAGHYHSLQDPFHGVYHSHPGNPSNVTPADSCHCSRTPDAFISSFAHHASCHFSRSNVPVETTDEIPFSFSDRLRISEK

| Compound | pIC50 (FL hMALT1 enzyme) | pIC50 [1] |
| --- | --- | --- |
| C[C@@H]1CN(C(=O)Nc2cnc(-n3nccn3)c(C(F)(F)F)c2)c2cccc(Br)c2[C@@H]1C (relative stereo) [Example 11, cis-N-(6-(2H-1,2,3-Triazol-2-yl)-5-(trifluoromethyl)pyridin-3-yl)-5-bromo-3,4-dimethyl-3,4-dihydroquinoline-1 (2H)-carboxamide] | 5.92 | 5.39 |
| O=C(Nc1cnc(-n2nccn2)c(Cl)c1)N1CC(C(F)(F)F)Oc2c(Br)cncc21 (single isomer, unassigned) [Example 39, 8-Bromo-N-(5-chloro-6-(2H-1,2,3-triazol-2-yl)pyridin-3-yl)-2-(trifluoromethyl)-2,3-dihydro-4H-pyrido[4,3-b][1,4]oxazine-4-carboxamide] | 5.92 | 5.24 |
| CC1CN(C(=O)Nc2cnc(-n3nccn3)c(Cl)c2)c2cncc(Br)c2O1 (single isomer, unassigned) [Example 44, 8-Bromo-N-(5-chloro-6-(2H-1,2,3-triazol-2-yl)pyridin-3-yl)-2-methyl-2,3-dihydro-4H-pyrido[4,3-b][1,4]oxazine-4-carboxamide] | 6.48 |  |
| CC1CN(C(=O)Nc2cnc(-n3nccn3)c(Cl)c2)c2cncc(Br)c2O1 (single isomer, unassigned) [Example 45, 8-Bromo-N-(5-chloro-6-(2H-1,2,3-triazol-2-yl)pyridin-3-yl)-2-methyl-2,3-dihydro-4H-pyrido[4,3-b][1,4]oxazine-4-carboxamide] | 6.70 |  |
| O=C(Nc1cnc(-n2nccn2)c(Cl)c1)N1CC(C2CC2)Oc2c(Br)cncc21 (single isomer, unassigned) [Example 50, 8-Bromo-N-(5-chloro-6-(2H-1,2,3-triazol-2-yl)pyridin-3-yl)-2-cyclopropyl-2,3-dihydro-4H-pyrido[4,3-b][1,4]oxazine-4-carboxamide] | 6.62 |  |
| O=C(Nc1cnc(-n2nccn2)c(Cl)c1)N1CC(C2CC2)Oc2c(Br)cncc21 (single isomer, unassigned) [Example 51, 8-Bromo-N-(5-chloro-6-(2H-1,2,3-triazol-2-yl)pyridin-3-yl)-2-cyclopropyl-2,3-dihydro-4H-pyrido[4,3-b][1,4]oxazine-4-carboxamide] | 6.60 |  |
| N#Cc1cncc2c1OC(C(F)(F)F)CN2C(=O)Nc1cnc(-n2nccn2)c(Cl)c1 (single isomer, unassigned) [Example 54, N-(5-Chloro-6-(2H-1,2,3-triazol-2-yl)pyridin-3-yl)-8-cyano-2-(trifluoromethyl)-2,3-dihydro-4H-pyrido[4,3-b][1,4]oxazine-4-carboxamide] | 5.09 |  |
| COc1cncc2c1OC(C(F)(F)F)CN2C(=O)Nc1cnc(-n2nccn2)c(Cl)c1 (single isomer, unassigned) [Example 56, N-(5-Chloro-6-(2H-1,2,3-triazol-2-yl)pyridin-3-yl)-8-methoxy-2-(trifluoromethyl)-2,3-dihydro-4H-pyrido[4,3-b][1,4]oxazine-4-carboxamide] | 5.29 |  |
| COc1cncc2c1OC(C(F)(F)F)CN2C(=O)Nc1cnc(-n2nccn2)c(Cl)c1 (single isomer, unassigned) [Example 57, N-(5-Chloro-6-(2H-1,2,3-triazol-2-yl)pyridin-3-yl)-8-methoxy-2-(trifluoromethyl)-2,3-dihydro-4H-pyrido[4,3-b][1,4]oxazine-4-carboxamide] | 6.77 |  |
| O=C(Nc1cnc(-n2nccn2)c(Cl)c1)N1CCCc2c(Br)cccc21 [Example 1, 5-Bromo-N-(5-chloro-6-(2H-1,2,3-triazol-2-yl)pyridin-3-yl)-3,4-dihydroquinoline-1 (2H)-carboxamide] |  | 5.35 |
| O=C(Nc1cnc(-n2nccn2)c(C(F)(F)F)c1)N1CCCc2c(Br)cccc21 [Example 2, N-(6-(2H-1,2,3-Triazol-2-yl)-5-(trifluoromethyl)pyridin-3-yl)-5-bromo-3,4-dihydroquinoline-1 (2H)-carboxamide] |  | 5.49 |
| COc1cccc2c1CCCN2C(=O)Nc1cnc(-n2nccn2)c(Cl)c1 [Example 3, N-(5-Chloro-6-(2H-1,2,3-triazol-2-yl)pyridin-3-yl)-5-methoxy-3,4-dihydroquinoline-1 (2H)-carboxamide] | 6.21 | 5.52 |
| O=C(Nc1cnc(-n2nccn2)c(C(F)(F)F)c1)N1CCOc2c(Br)cccc21 [Example 4, N-(6-(2H-1,2,3-Triazol-2-yl)-5-(trifluoromethyl)pyridin-3-yl)-8-bromo-2,3-dihydro-4H-benzo[b][1,4]oxazine-4-carboxamide] | 6.40 | 5.55 |
| N#CC1Cc2c(Br)cncc2N(C(=O)Nc2cnc(-n3nccn3)c(Cl)c2)C1 (stereo not shown) [Example 58, 5-Bromo-N-(5-chloro-6-(2H-1,2,3-triazol-2-yl)pyridin-3-yl)-3-cyano-3,4-dihydro-1,7-naphthyridine-1 (2H)-carboxamide] | 5.89 |  |

More lines, main results first:

| pIC50 (FL hMALT1 enzyme) | Compound | pIC50 [1] |
| --- | --- | --- |
| 5.47 | Cc1ncc2c(c1Br)OC(C(F)(F)F)CN2C(=O)Nc1cnc(-n2nccn2)c(Cl)c1 (single isomer, unassigned) [Example 42, 8-Bromo-N-(5-chloro-6-(2H-1,2,3-triazol-2-yl)pyridin-3-yl)-7-methyl-2-(trifluoromethyl)-2,3-dihydro-4H-pyrido[4,3-b][1,4]oxazine-4-carboxamide] |  |
| 5.12 | Cc1ncc2c(c1C#N)OC(C(F)(F)F)CN2C(=O)Nc1cnc(-n2nccn2)c(Cl)c1 (single isomer, unassigned) [Example 52, N-(5-Chloro-6-(2H-1,2,3-triazol-2-yl)pyridin-3-yl)-8-cyano-7-methyl-2-(trifluoromethyl)-2,3-dihydro-4H-pyrido[4,3-b][1,4]oxazine-4-carboxamide] |  |
| 5.42 | Cc1ncc2c(c1C#N)OC(C(F)(F)F)CN2C(=O)Nc1cnc(OC(F)F)c(Cl)c1 (single isomer, unassigned) [Example 60, N-(5-Chloro-6-(difluoromethoxy)pyridin-3-yl)-8-cyano-7-methyl-2-(trifluoromethyl)-2,3-dihydro-4H-pyrido[4,3-b][1,4]oxazine-4-carboxamide] |  |
| 5.19 | Cc1ncc2c(c1C#N)OC(C(F)(F)F)CN2C(=O)Nc1cnc(-n2nccn2)c(C#N)c1 (single isomer, unassigned) [Example 62, 8-Cyano-N-(5-cyano-6-(2H-1,2,3-triazol-2-yl)pyridin-3-yl)-7-methyl-2-(trifluoromethyl)-2,3-dihydro-4H-pyrido[4,3-b][1,4]oxazine-4-carboxamide] |  |
| 6.98 | Cc1ncc2c(c1C#N)OC(C(F)(F)F)CN2C(=O)Nc1cnc(-n2nccn2)c(C#N)c1 (single isomer, unassigned) [Example 63, 8-Cyano-N-(5-cyano-6-(2H-1,2,3-triazol-2-yl)pyridin-3-yl)-7-methyl-2-(trifluoromethyl)-2,3-dihydro-4H-pyrido[4,3-b][1,4]oxazine-4-carboxamide] |  |
| 5.67 | Cc1ncc2c(c1C#N)OC(C(F)(F)F)CN2C(=O)Nc1cnc(-n2nccn2)c(C(F)(F)F)c1 (single isomer, unassigned) [Example 64, N-(6-(2H-1,2,3-triazol-2-yl)-5-(trifluoromethyl)pyridin-3-yl)-8-cyano-7-methyl-2-(trifluoromethyl)-2,3-dihydro-4H-pyrido[4,3-b][1,4]oxazine-4-carboxamide] |  |
| 7.77 | Cc1ncc2c(c1C#N)OC(C(F)(F)F)CN2C(=O)Nc1cnc(-n2nccn2)c(C(F)(F)F)c1 (single isomer, unassigned) [Example 65, N-(6-(2H-1,2,3-triazol-2-yl)-5-(trifluoromethyl)pyridin-3-yl)-8-cyano-7-methyl-2-(trifluoromethyl)-2,3-dihydro-4H-pyrido[4,3-b][1,4]oxazine-4-carboxamide] |  |
| 5.04 | Cc1ncc2c(c1C#N)OC(C(F)(F)F)CN2C(=O)Nc1cnc(C(=O)N(C)C2CC2)c(C(F)F)c1 (single isomer, unassigned) [Example 66, 8-Cyano-N-(6-(cyclopropyl(methyl)carbamoyl)-5-(difluoromethyl)pyridin-3-yl)-7-methyl-2-(trifluoromethyl)-2,3-dihydro-4H-pyrido[4,3-b][1,4]oxazine-4-carboxamide] |  |
| 6.84 | Cc1ncc2c(c1C#N)OC(C(F)(F)F)CN2C(=O)Nc1cnc(C(=O)N(C)C2CC2)c(C(F)F)c1 (single isomer, unassigned) [Example 67, 8-Cyano-N-(6-(cyclopropyl(methyl)carbamoyl)-5-(difluoromethyl)pyridin-3-yl)-7-methyl-2-(trifluoromethyl)-2,3-dihydro-4H-pyrido[4,3-b][1,4]oxazine-4-carboxamide] |  |
| 6.09 | Cc1ncc2c(c1C#N)OC(C(F)(F)F)CN2C(=O)Nc1ccnc(C(F)(F)F)c1 (stereo not shown) [Example 59, 8-Cyano-7-methyl-2-(trifluoromethyl)-N-(2-(trifluoromethyl)pyridin-4-yl)-2,3-dihydro-4H-pyrido[4,3-b][1,4]oxazine-4-carboxamide] |  |
